One assay addresses JAK2 kinase domain (JH1) (Homo sapiens (Human), UniProt O60674). Kind of assay: JAK2 Radioactive Kinase Assay. Type of assay: biochemical. The settings on record: for inhibition at 10 µM: read-out: JAK2 JH1% Inhibition @ 10 μM. The method in brief:
(§1)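 Single-point screen: 10 μM test compound, radioactive kinase read-out, percent inhibition reported for each kinase domain.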

Assay [1] deals with JAK2/JAK2 homdimeric complex (Homo sapiens (Human), UniProt O60674). Kind of assay: GM-CSF Induced pSTAT5 in Human PBMC. It is filed as cell-based. The settings on record: GM-CSF 5 ng/mL for 20 minutes, pSTAT5 by MSD, read-out: PBMC_GMCSF_pSTAT5 IC50.
Sequence of JAK2/JAK2 homdimeric complex (O60674 whole entry, the tested form may be a part): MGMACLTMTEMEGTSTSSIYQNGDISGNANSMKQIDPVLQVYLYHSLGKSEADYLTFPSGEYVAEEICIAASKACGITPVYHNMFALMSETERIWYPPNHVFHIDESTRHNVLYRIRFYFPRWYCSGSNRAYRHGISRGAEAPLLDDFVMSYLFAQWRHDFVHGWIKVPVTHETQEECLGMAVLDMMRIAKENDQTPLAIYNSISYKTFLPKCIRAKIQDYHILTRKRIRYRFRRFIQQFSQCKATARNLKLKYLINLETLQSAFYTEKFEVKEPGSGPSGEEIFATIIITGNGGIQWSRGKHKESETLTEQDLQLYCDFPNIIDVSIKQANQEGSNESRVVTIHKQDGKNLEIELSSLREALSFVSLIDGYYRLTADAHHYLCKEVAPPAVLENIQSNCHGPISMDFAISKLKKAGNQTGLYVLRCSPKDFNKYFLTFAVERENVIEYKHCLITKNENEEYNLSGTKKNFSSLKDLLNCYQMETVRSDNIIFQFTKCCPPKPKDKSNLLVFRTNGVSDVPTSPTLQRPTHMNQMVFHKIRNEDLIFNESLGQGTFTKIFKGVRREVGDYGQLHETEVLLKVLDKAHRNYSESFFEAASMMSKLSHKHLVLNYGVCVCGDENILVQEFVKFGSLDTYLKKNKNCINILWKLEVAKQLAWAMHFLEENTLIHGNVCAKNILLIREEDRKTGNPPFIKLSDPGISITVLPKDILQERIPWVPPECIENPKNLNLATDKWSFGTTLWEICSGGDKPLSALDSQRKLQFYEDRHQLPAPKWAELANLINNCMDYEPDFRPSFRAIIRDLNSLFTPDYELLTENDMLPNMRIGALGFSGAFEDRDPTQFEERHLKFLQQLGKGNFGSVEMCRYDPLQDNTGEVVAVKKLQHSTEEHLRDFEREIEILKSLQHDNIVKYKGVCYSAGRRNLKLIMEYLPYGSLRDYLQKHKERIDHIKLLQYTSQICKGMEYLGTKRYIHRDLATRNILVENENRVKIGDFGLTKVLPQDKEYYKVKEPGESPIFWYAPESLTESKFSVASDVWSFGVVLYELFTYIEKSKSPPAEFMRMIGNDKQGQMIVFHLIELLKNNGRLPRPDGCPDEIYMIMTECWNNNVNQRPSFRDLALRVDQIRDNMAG
Sequence of JAK2/JAK2 homdimeric complex (P32927 17-897 partner): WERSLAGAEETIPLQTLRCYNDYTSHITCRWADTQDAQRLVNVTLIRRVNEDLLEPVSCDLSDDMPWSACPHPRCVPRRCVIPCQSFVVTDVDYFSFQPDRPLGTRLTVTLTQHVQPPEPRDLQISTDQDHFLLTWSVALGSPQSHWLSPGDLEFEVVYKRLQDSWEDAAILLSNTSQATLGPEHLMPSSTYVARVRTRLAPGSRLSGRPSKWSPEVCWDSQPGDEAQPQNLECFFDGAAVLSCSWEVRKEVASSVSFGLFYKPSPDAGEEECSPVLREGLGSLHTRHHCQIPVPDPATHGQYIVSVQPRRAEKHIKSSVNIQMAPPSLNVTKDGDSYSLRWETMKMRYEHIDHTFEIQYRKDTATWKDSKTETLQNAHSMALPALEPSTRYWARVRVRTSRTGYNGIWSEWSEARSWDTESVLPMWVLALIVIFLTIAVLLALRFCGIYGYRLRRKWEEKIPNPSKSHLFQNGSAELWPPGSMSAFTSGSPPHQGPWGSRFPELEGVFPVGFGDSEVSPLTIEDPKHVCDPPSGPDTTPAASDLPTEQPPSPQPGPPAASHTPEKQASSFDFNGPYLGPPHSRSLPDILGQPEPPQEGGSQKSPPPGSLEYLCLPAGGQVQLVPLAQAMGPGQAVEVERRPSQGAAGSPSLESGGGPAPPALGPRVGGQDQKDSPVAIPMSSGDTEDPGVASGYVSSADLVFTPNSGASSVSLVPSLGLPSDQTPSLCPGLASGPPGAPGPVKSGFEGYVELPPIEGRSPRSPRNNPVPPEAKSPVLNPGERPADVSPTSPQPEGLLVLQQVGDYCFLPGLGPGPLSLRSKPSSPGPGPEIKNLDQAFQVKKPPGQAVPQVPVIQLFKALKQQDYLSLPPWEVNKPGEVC
Another assay addresses Tyk2 kinase domain (DH1) (Homo sapiens (Human), UniProt P29597). Kind of assay: Tyk2 Radioactive Kinase Assay. It is filed as biochemical. The note with it: for inhibition at 10 µM: read-out: Tyk2 JH1% Inhibition @ 10 μM. The method, boiled down:
as §1

Assay [2] deals with Tyk2/JAK2 (heterodimeric complex) (Homo sapiens (Human), UniProt P29597). Kind of assay: IL-12 Induced pSTAT4 in Human PBMC. Type of assay: cell-based. The note with it: 1.7 ng/mL IL-12. From the text: The IL-12 Induced pSTAT4 assay evaluates the inhibition of IL-12 induced STAT4 phophorylation mediated by Tyk2/JAK2 (heterodimeric complex).
Sequence of Tyk2/JAK2 (heterodimeric complex) (P29597 whole entry, other chains not shown, the tested form may be a part): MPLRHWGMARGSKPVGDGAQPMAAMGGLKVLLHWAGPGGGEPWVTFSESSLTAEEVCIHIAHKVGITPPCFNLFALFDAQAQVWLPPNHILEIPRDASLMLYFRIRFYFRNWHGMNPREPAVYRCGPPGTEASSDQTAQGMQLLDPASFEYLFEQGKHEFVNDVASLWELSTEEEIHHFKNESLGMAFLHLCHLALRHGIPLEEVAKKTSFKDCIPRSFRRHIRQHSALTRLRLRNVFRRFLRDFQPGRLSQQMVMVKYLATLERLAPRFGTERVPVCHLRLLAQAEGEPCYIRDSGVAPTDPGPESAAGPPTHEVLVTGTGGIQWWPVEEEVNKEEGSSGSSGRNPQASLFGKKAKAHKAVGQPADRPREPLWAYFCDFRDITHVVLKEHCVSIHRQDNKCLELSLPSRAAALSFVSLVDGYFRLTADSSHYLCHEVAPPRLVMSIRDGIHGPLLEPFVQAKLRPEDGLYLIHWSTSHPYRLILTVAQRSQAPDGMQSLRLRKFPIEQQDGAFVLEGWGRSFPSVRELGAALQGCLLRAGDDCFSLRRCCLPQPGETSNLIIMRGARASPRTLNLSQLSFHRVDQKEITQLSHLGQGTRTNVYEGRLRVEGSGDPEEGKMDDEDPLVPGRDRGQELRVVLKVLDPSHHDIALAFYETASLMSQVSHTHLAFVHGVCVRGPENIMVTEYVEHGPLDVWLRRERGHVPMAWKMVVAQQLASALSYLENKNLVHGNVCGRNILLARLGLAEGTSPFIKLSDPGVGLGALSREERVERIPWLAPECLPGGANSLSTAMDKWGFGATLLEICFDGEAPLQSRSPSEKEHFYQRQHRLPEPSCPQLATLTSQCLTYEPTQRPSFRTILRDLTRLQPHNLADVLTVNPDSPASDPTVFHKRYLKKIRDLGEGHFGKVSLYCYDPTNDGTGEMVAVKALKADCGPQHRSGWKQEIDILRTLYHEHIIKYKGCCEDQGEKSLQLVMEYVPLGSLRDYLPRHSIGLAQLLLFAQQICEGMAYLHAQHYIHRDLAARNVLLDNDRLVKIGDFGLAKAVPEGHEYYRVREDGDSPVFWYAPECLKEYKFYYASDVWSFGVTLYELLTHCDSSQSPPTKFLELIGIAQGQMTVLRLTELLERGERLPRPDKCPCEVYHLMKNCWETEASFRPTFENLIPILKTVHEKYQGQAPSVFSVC
In assay [3] the target is human TYK2 (JH2domain-pseudokinase) (Homo sapiens (Human), UniProt P29597). Kind of assay: TYK2 JH2 Domain Binding Assay (KINOMEscan). The method, boiled down: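 The construct was human TYK2 G556–D888 fused to the NFkB DNA-binding domain and expressed in HEK293 cells; unpurified extract was incubated with compound and liganded beads for 1 hour at room temperature.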
Sequence of human TYK2 (JH2domain-pseudokinase) (P29597 556-888): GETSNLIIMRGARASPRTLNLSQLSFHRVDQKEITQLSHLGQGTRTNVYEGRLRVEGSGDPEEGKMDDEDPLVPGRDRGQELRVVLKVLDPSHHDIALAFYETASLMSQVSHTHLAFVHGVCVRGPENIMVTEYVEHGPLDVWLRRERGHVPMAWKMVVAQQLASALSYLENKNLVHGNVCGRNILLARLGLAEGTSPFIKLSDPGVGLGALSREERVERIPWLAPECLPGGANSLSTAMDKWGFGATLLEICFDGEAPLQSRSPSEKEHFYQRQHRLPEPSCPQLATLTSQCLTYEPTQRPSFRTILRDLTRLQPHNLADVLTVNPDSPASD

Each structure is given as a SMILES string. Where two headings read alike, the source gives them in different places.

Sequence of Tyk2 kinase domain (DH1) (P29597 897-1176): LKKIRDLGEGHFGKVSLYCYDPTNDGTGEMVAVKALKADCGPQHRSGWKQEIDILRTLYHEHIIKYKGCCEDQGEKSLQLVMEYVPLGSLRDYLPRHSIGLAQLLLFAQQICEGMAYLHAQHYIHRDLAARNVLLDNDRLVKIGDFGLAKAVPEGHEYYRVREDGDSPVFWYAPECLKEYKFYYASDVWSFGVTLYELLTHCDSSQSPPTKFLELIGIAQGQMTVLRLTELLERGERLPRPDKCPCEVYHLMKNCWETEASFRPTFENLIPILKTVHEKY
Sequence of JAK2 kinase domain (JH1) (O60674 849-1124): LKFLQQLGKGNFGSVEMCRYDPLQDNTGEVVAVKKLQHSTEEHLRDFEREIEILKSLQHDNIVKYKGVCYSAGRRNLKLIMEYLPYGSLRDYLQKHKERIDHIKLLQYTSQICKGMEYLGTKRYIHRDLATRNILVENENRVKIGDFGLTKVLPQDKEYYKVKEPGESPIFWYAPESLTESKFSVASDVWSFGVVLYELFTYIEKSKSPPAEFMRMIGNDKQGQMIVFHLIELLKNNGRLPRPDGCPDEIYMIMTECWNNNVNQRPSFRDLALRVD

Broadly, the inhibition is the drop in the measured response relative to a control, in per cent. The term IC50 denotes the point on the concentration scale where inhibition reaches its midpoint. As to `CNc1cc(Nc2cccc3ocnc23)nc2c(C(=O)N[C@H]3COC[C@H]3O)cnn12` [I-834], the inhibition at 10 µM is below 50% at JAK2 kinase domain (JH1) (10 μM compound, 10 μM ATP) and below 50% on Tyk2 kinase domain (DH1) (10 μM compound, 10 μM ATP). The IC50 in assay [1] was above 50000 nM; in assay [2], 100 to 500 nM.
Take `CNc1cc(Nc2cccn(-c3cccc(F)c3)c2=O)nc2c(C(=O)N[C@@H]3CC[C@H]3O)cnn12` [I-946]: the “JAK2 JH1% Inhibition @ 10 μM” value at JAK2 kinase domain (JH1) (10 μM compound, 10 μM ATP) is “A (percent inhibition at 10 μM lower than 50)”. Moreover, the results for the IC50 in assay [1] and in assay [2] were above 50000 nM and below 100 nM, respectively. Moreover, on Tyk2 kinase domain (DH1) (10 μM compound, 10 μM ATP), the “Tyk2 JH1% Inhibition @ 10 μM” value is “A (percent inhibition at 10 μM lower than 50)”.
For the compound `CNc1cc(Nc2cccn([C@@H]3CCC[C@H](OC)C3)c2=O)nc2c(C(=O)N[C@@H]3CC[C@H]3OC)cnn12` [I-995], on JAK2 kinase domain (JH1) (10 μM compound, 10 μM ATP), the “JAK2 JH1% Inhibition @ 10 μM” value is on record as “A (percent inhibition at 10 μM lower than 50)”. Further, the IC50 in assay [1] was above 50000 nM; in assay [2] it was below 100 nM. The “Tyk2 JH1% Inhibition @ 10 μM” value at Tyk2 kinase domain (DH1) (10 μM compound, 10 μM ATP) is on record as “A (percent inhibition at 10 μM lower than 50)”.
By Kd is commonly meant the equilibrium constant for the complex coming apart. A high value points to a looser complex. On to `CNc1cc(Nc2cccn([C@@H]3CCCOC3)c2=O)nc2c(C(=O)NC3CC3)cnn12` [I-351], for which the inhibition at 10 µM on JAK2 kinase domain (JH1) (compound at 10 μM, ATP 10 μM) is below 50%; on Tyk2 kinase domain (DH1) (compound at 10 μM, ATP 10 μM) it was below 50%. In assay [3], this compound showed a Kd below 0.2 nM. The compound further had an IC50 in assay [2] below 100 nM.
Consider `CNc1cc(Nc2cccn([C@H]3CC[C@@H]3O)c2=O)nc2c(C(=O)N[C@@H]3C[C@@H]3F)cnn12` [I-916], for which the inhibition at 10 µM was below 50% on JAK2 kinase domain (JH1) (10 μM compound, 10 μM ATP) and below 50% at Tyk2 kinase domain (DH1) (10 μM compound, 10 μM ATP). Also, the IC50 in assay [1] is above 50000 nM; in assay [2], below 100 nM.
Regarding `CNc1cc(Nc2cccn(-c3ncccc3F)c2=O)nc2c(C(=O)O)cnn12` [I-893, 5-((3′-fluoro-2-oxo-2H-[1,2′-bipyridin]-3-yl)amino)-7-(methylamino) pyrazolo[1,5-a]pyrimidine-3-carboxylic acid], the inhibition at 10 µM on JAK2 kinase domain (JH1) (10 μM compound, 10 μM ATP) is below 50%; on Tyk2 kinase domain (DH1) (10 μM compound, 10 μM ATP) it was below 50%. The equilibrium dissociation constant (Kd) in assay [3] lay in the range of 1 to 10 nM. In assay [2], this compound came in with an IC50 above 1000 nM.
Take `CNc1cc(Nc2cccn([C@H]3CC[C@](C)(O)CC3)c2=O)nc2c(C(=O)NC3CC3)cnn12` [I-371]: the inhibition at 10 µM is below 50% at JAK2 kinase domain (JH1) (compound at 10 μM, ATP 10 μM) and below 50% on Tyk2 kinase domain (DH1) (compound at 10 μM, ATP 10 μM). Further, in assay [3], the Kd is below 0.2 nM. The IC50 in assay [2] lay in the range of 100 to 500 nM.
`CNc1cc(Nc2cccc(C3CCCOC3)n2)nc2c(C(=O)N[C@@H]3C[C@@H]3F)cnn12` (some centres unmarked) [I-522] registered a Kd in assay [3] below 0.2 nM. For the same compound, the results for the IC50 in assay [1] and in assay [2] were above 50000 nM and below 100 nM, respectively.
As to `CNc1cc(Nc2cccn([C@H]3CCC[C@@H](OC)C3)c2=O)nc2c(C(=O)NCC(C)(C)CO)cnn12` [I-861], the inhibition at 10 µM is below 50% at JAK2 kinase domain (JH1) (10 μM compound, 10 μM ATP) and below 50% at Tyk2 kinase domain (DH1) (10 μM compound, 10 μM ATP). In assay [3], the Kd is below 0.2 nM. In assay [2], this compound registered an IC50 below 100 nM.
On to `CNc1cc(Nc2cccc(C)c2Cl)nc2c(C(N)=O)cnn12` [I-14], for which the Kd in assay [3] was below 0.2 nM. Also, the IC50 is above 50000 nM in assay [1] and below 100 nM in assay [2].
As to `CNc1cc(Nc2cccn([C@H]3CC[C@@](C)(O)CC3)c2=O)nc2c(C(=O)N[C@H]3C[C@H]3F)cnn12` [I-370], the inhibition at 10 µM on JAK2 kinase domain (JH1) (compound at 10 μM, ATP 10 μM) is below 50%; on Tyk2 kinase domain (DH1) (compound at 10 μM, ATP 10 μM), below 50%. This compound also yielded a Kd in assay [3] below 0.2 nM. The IC50 in assay [2] was below 100 nM.
As to `CNc1cc(-c2cn([C@@H]3CCCOC3)c3ncccc23)nc2c(C(=O)N[C@H]3CC[C@@H]3OC)cnn12` [I-1364], the Kd in assay [3] fell in the range of 0.2 to 1 nM. The compound also gave an IC50 in assay [2] below 100 nM.
On to `CNc1cc(Nc2cccn(-c3ccc(F)cc3)c2=O)nc2c(C(N)=O)cnn12` [I-9], for which the inhibition at 10 µM on JAK2 kinase domain (JH1) (compound at 10 μM, ATP 10 μM) is below 50%; on Tyk2 kinase domain (DH1) (compound at 10 μM, ATP 10 μM), below 50%. The equilibrium dissociation constant (Kd) in assay [3] is below 0.2 nM. Besides, the IC50 in assay [2] fell in the range of 100 to 500 nM.
`CNc1cc(Nc2cc3cccnc3n2C2CC2)nc2c(C(=O)N[C@H]3CC[C@@H]3OC)cnn12` [I-1325] yielded a Kd in assay [3] below 0.2 nM. This compound also gave an IC50 in assay [2] below 100 nM.
In the case of `CNc1cc(Nc2cccn([C@H]3CCC[C@@H](O)C3)c2=O)nc2c(C(=O)N[C@H]3CC[C@@H]3OC)cnn12` [I-1296], the Kd in assay [3] was below 0.2 nM. The compound further came in with an IC50 in assay [2] below 100 nM.
In assay [3], `CNc1cc(Nc2cccn([C@@H]3CCC[C@@H](OC)C3)c2=O)nc2c(C(=O)N[C@H]3CC[C@@H]3OC)cnn12` [I-1331] showed a Kd of 1 to 10 nM. In assay [2], this compound came in with an IC50 below 100 nM.
With `CNc1cc(Nc2cccn([C@H]3CC[C@](C)(O)CC3)c2=O)nc2c(C(=O)N[C@H]3C[C@H]3F)cnn12` [I-372], the inhibition at 10 µM at JAK2 kinase domain (JH1) (compound at 10 μM, ATP 10 μM) was below 50%; on Tyk2 kinase domain (DH1) (compound at 10 μM, ATP 10 μM) it was below 50%. This compound had a Kd in assay [3] below 0.2 nM. This compound came in with an IC50 in assay [2] below 100 nM.
As to `CNc1cc(-c2cn([C@H]3CCCOC3)c3ncccc23)nc2c(C(=O)N[C@H]3CC[C@@H]3OC)cnn12` [I-1365], in assay [3], the Kd is below 0.2 nM. The same compound had an IC50 in assay [2] below 100 nM.
In assay [3], `CNc1cc(-c2cn([C@H]3CCCOC3)c3ncccc23)nc2c(C(=O)N[C@H]3CC[C@@H]3OC)cnn12` [I-1283] had a Kd of 1 to 10 nM. The same compound returned an IC50 in assay [2] below 100 nM.
In assay [3], `CNc1cc(Nc2cccn([C@H]3CCC[C@H](OC)C3)c2=O)nc2c(C(=O)N[C@@H]3CC[C@H]3OC)cnn12` [I-1374] returned a Kd of 0.2 to 1 nM. The IC50 in assay [2] is below 100 nM.
For the compound `CNc1cc(Nc2cccn(-c3nn(C)cc3C)c2=O)nc2c(C(=O)N[C@H]3C[C@H]3F)cnn12` [I-405], the inhibition at 10 µM on JAK2 kinase domain (JH1) (compound at 10 μM, ATP 10 μM) is below 50%; on Tyk2 kinase domain (DH1) (compound at 10 μM, ATP 10 μM), below 50%. The Kd in assay [3] fell in the range of 0.2 to 1 nM. For the same compound, in assay [2], the IC50 was in the range of 100 to 500 nM.
With `CNc1cc(-c2cn(CCCO)c3ncccc23)nc2c(C(=O)N[C@@H]3CC[C@H]3OC)cnn12` [I-1299], the Kd in assay [3] was below 0.2 nM. This compound came in with an IC50 in assay [2] below 100 nM.
Taken in the same sequence, the figures for `CNc1cc(Nc2cccn([C@@H]3CC[C@H]3O)c2=O)nc2c(C(=O)N[C@@H]3CC[C@H]3OC)cnn12` [I-1309] were below 0.2 nM and below 100 nM.
In the case of `CNc1cc(Nc2cccn(-c3nn(C)cc3F)c2=O)nc2c(C(=O)N[C@@H]3C[C@@H]3F)cnn12` [I-1321], the Kd in assay [3] is below 0.2 nM. In assay [2], the IC50 is below 100 nM.
The matching figures for `CNc1cc(-c2cn([C@H]3CCN(CCF)C3)c3ncccc23)nc2c(C(=O)N[C@@H]3C[C@@H]3F)cnn12` [I-1362]: 0.2 to 1 nM and below 100 nM.
In turn, `CNc1cc(Nc2cccn([C@H]3CC[C@@H]3O)c2=O)nc2c(C(=O)N[C@H]3CC[C@@H]3OC)cnn12` [I-1385] showed a Kd in assay [3] of 0.2 to 1 nM. Besides, the IC50 in assay [2] was below 100 nM.
`CNc1cc(Nc2cccn([C@@H]3CC[C@@H]3O)c2=O)nc2c(C(=O)N[C@@H]3CC[C@H]3OC)cnn12` [I-1350] came in with a Kd in assay [3] below 0.2 nM. Besides, in assay [2], the IC50 is below 100 nM.
For the compound `CNc1cc(Nc2cccn3ccnc23)nc2c(C(=O)N[C@@H]3CC[C@H]3OC)cnn12` [I-1133], the Kd in assay [3] is 1 to 10 nM. This compound also yielded an IC50 in assay [2] below 100 nM.
In the case of `CNc1cc(-c2cn(C3CCOCC3)c3ncc(F)cc23)nc2c(C(=O)N[C@H]3CC[C@@H]3O)cnn12` [I-1314], in assay [3], the Kd was below 0.2 nM. In assay [2], this compound displayed an IC50 below 100 nM.
`CNc1cc(Nc2cccn([C@H]3CCCN(CCF)C3)c2=O)nc2c(C(=O)N[C@@H]3C[C@@H]3F)cnn12` [I-900]: the inhibition at 10 µM on JAK2 kinase domain (JH1) (10 μM compound, 10 μM ATP) is below 50%; on Tyk2 kinase domain (DH1) (10 μM compound, 10 μM ATP), below 50%. This compound yielded a Kd in assay [3] below 0.2 nM. For the same compound, in assay [2], the IC50 was below 100 nM.
Turning to `CNc1cc(Nc2cccn(-c3nn(C)cc3C)c2=O)nc2c(C(=O)NC3CC3)cnn12` [I-404], the inhibition at 10 µM was below 50% at JAK2 kinase domain (JH1) (compound at 10 μM, ATP 10 μM) and below 50% on Tyk2 kinase domain (DH1) (compound at 10 μM, ATP 10 μM). Besides, the Kd in assay [3] fell in the range of 0.2 to 1 nM. Besides, the half-maximal inhibitory concentration (IC50) in assay [2] is above 1000 nM.

These data come from US10508120B2, “TYK2 inhibitors and uses thereof” (Nimbus Lakshmi, Inc., priority 2017, dated 2019).
